Results: PubChem BioAssay (NCI)
Values joined by “and” are separate entries in the source; they are usually repeats but may differ in a detail not shown here. Equal entries are not always repeated.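 Growth conditions: 96-well plates. Treatment: test compound, 48 hours, 5 concentrations. Analysis: linear interpolation between bracketing concentrations; unreached endpoints set to highest concentration. At the GI50, growth is halved. TGI: total growth inhibition.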

Experiments:
Assay in all cases: NCI-60 cell line screen, 48 h
CCRF-CEM leukemia = tested on: CCRF-CEM leukemia
EKVX NSCLC = tested on: EKVX NSCLC
HCT-116 colon = tested on: HCT-116 colon
HOP-92 NSCLC = tested on: HOP-92 NSCLC
NCI-H460 lung = tested on: NCI-H460 lung
SK-MEL-28 melanoma = tested on: SK-MEL-28 melanoma
SR leukemia = tested on: SR leukemia
U251 CNS = tested on: U251 CNS
UACC-62 melanoma = tested on: UACC-62 melanoma
UO-31 renal = tested on: UO-31 renal

Structure (SMILES)	GI50 (CCRF-CEM leukemia)	TGI (CCRF-CEM leukemia)	GI50 (EKVX NSCLC)	TGI (EKVX NSCLC)	GI50 (HCT-116 colon)	TGI (HCT-116 colon)	GI50 (HOP-92 NSCLC)	TGI (HOP-92 NSCLC)	GI50 (NCI-H460 lung)	TGI (NCI-H460 lung)	GI50 (SK-MEL-28 melanoma)	TGI (SK-MEL-28 melanoma)	GI50 (SR leukemia)	TGI (SR leukemia)	GI50 (U251 CNS)	TGI (U251 CNS)	GI50 (UACC-62 melanoma)	TGI (UACC-62 melanoma)	GI50 (UO-31 renal)	TGI (UO-31 renal)
Cc1cc(N2CCCC2)nc(N(CCCNc2ccnc3cc(Cl)ccc23)Cc2ccc3c(c2)OCO3)n1	0.398 µM	4.03 µM	3.16 µM	> 100 µM	0.511 µM	3.3 µM	0.0237 µM	2.96 µM	1.29 µM	4.34 µM	1.3 µM	2.74 µM	0.152 µM	0.431 µM	1.57 µM	5.2 µM	1.78 µM	3.38 µM	0.677 µM	3.71 µM
CC(=O)Oc1ccccc1C(=O)C1c2cccc(O)c2C(=O)c2c(O)cccc21	–	2.77 µM	–	6.15 µM	–	3.41 µM	–	3.76 µM	–	2.1 µM	–	7.14 µM	–	0.967 µM	–	1.99 µM	–	2.23 µM	–	1.68 µM
Cn1cc(-c2ccc(CNc3cc(-c4cnc5cc(OCCCN6CCCC6)ccn45)ncn3)cc2)cn1	2.72 µM	> 100 µM	3.01 µM	9.59 µM	1.57 µM	2.98 µM	3.89 µM	22.2 µM	1.77 µM	3.37 µM	1.65 µM	3.17 µM	2.17 µM	7.12 µM	1.43 µM	2.77 µM	13.2 µM	29.2 µM	1.41 µM	2.82 µM
S=c1ssc(Sc2ccccn2)c1Cl	–	–	12.5 µM	30.3 µM	–	–	12.6 µM	26.8 µM	15.2 µM	28.5 µM	–	–	1.7 µM	4.64 µM	11 µM	22.9 µM	15.3 µM	28.6 µM	6.51 µM	> 100 µM
N#Cc1ccccc1NC(=O)c1ccccc1	–	–	–	> 100 µM	–	> 100 µM	–	> 100 µM	–	> 100 µM	–	> 100 µM	–	> 100 µM	–	> 100 µM	–	> 100 µM	–	–
O=[N+]([O-])c1nccn1CC1OC(n2ccnc2[N+](=O)[O-])C(O)C(O)C1O (stereo not drawn)	–	> 100 µM	–	> 100 µM	–	> 100 µM	–	> 100 µM	–	> 100 µM	–	> 100 µM	–	> 100 µM	–	> 100 µM	–	> 100 µM	–	> 100 µM
Cn1cc(-c2ccc3c(c2)CCN3C(=O)Cc2cccc(C(F)(F)F)c2)c2c(N)ncnc21	3.94 µM	> 100 µM	8.7 µM	29 µM	4.64 µM	18.1 µM	1.7 µM	9.2 µM	3.85 µM	19.7 µM	4.72 µM	21.4 µM	2.38 µM	23.4 µM	2.69 µM	17.7 µM	2.72 µM	16.9 µM	0.673 µM	14.3 µM
Fc1ccc(Nc2nccc(-c3c(-c4ccc(C(F)(F)F)cc4)nn4ncccc34)n2)cc1F	> 25 µM	> 25 µM	> 25 µM	> 25 µM	> 25 µM	> 25 µM	> 25 µM	> 25 µM	> 25 µM	> 25 µM	> 25 µM	> 25 µM	> 25 µM	> 25 µM	> 25 µM	> 25 µM	> 25 µM	> 25 µM	> 25 µM	> 25 µM
CC(C)(Br)C(=O)/C=C/c1ccccc1	–	1.63 µM	–	23 µM	–	–	–	18 µM	–	63.4 µM	–	28.9 µM	–	> 25.6 µM	–	20.5 µM	–	19 µM	–	3.68 µM
CCc1c2c(nc3cccc(N)c13)-c1cc3c(c(=O)n1C2)COC(=O)[C@]3(O)CC	< 0.001 µM	–	0.187 µM	> 100 µM	–	–	0.00331 µM	–	0.002 µM	–	0.113 µM and 0.034 µM	> 100 µM	< 0.001 µM	–	< 0.001 µM	0.0348 µM and 0.03 µM	< 0.001 µM	–	0.0516 µM	0.397 µM
O=C(Cc1ccccc1)N/N=C(\C1=Nc2ccc([N+](=O)[O-])cc2NC1O)C(O)c1ccc([N+](=O)[O-])cc1 (stereo not drawn)	–	> 100 µM	–	> 100 µM	–	> 100 µM	–	> 100 µM	–	> 100 µM	–	–	–	> 100 µM	–	> 100 µM	–	> 100 µM	–	> 100 µM
C/C=C(/CCCCNCCCC)[Si](C)(C)C	–	73.4 µM	–	25.8 µM	–	26.6 µM	–	20.9 µM	–	31.9 µM	–	29.4 µM	–	35.1 µM	–	26.3 µM	–	32.7 µM	–	31.4 µM
N/N=C(\Cc1ccccc1)NN=C(N)N	–	> 100 µM	–	> 100 µM	–	> 100 µM	–	> 100 µM	–	> 100 µM	–	> 100 µM	–	> 100 µM	–	> 100 µM	–	> 100 µM	–	> 100 µM
C/C(=N\NC(N)=O)C(CN(C)C)C(c1ccccc1)c1c(O)c2ccccc2oc1=O (stereo not drawn)	–	> 100 µM	–	> 100 µM	–	> 100 µM	–	7.67 µM	–	> 100 µM	–	> 100 µM	–	> 100 µM	–	> 100 µM	–	> 100 µM	–	> 100 µM
COc1cc2cc(Oc3ccc(NC(=O)c4ccc(Cl)c(C(F)(F)F)c4)cc3)c(C)nc2cc1OC	7.56 µM	> 100 µM	5.76 µM	83.3 µM	4.18 µM	88.9 µM	13.6 µM	71.3 µM	11.5 µM	> 100 µM	30.3 µM	> 100 µM	14.3 µM	> 100 µM	8.72 µM	> 100 µM	18.2 µM	> 100 µM	9.82 µM	> 100 µM
CN(C)c1ccc(N=Nc2c([O-])ccc3ccccc23)cc1.[C-]#[O+].[C-]#[O+].[Ir]	8.08 µM	39.9 µM	20.6 µM	64.1 µM	19.5 µM	38.4 µM	2.72 µM	8.64 µM	> 100 µM	> 100 µM	26.3 µM	65.4 µM	17.9 µM	57.7 µM	35.1 µM	> 69.3 µM	21.5 µM	55.6 µM	26.7 µM	> 53.2 µM
